The text below walks through data of publication PMC6838683, “Discovery of Human Signaling Systems: Pairing Peptides to G Protein-Coupled Receptors” (Cell, 2019).

Like-named read-outs stand apart in the source and are kept apart here.

Assay [1] deals with T1, BB3 (Homo sapiens, UniProt P32247).
T1 construct: hIL-2Ra signal peptide (N); expressed in transfected cells
T1 sequence (P32247 2-399 limits assumed): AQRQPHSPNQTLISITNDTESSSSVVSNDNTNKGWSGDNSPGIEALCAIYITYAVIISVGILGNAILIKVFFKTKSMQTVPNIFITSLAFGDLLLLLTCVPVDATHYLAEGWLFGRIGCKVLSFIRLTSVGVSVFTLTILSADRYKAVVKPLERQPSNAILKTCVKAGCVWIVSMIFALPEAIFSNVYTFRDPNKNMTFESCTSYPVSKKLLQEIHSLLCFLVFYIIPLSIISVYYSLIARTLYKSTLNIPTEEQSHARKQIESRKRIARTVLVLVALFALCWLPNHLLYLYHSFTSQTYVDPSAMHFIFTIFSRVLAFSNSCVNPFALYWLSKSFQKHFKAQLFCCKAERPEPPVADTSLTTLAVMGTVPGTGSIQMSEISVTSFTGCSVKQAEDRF
The assay can be described thus: Real-time receptor internalization (TR-FRET), concentration-response. The class given is cell-based. In general terms: TR-FRET usually uses a lanthanide donor and a delayed reading to cut background.

The target of assay [2] is T2, GPR1 (Homo sapiens, UniProt P46091).
T2 sequence (P46091 1-355): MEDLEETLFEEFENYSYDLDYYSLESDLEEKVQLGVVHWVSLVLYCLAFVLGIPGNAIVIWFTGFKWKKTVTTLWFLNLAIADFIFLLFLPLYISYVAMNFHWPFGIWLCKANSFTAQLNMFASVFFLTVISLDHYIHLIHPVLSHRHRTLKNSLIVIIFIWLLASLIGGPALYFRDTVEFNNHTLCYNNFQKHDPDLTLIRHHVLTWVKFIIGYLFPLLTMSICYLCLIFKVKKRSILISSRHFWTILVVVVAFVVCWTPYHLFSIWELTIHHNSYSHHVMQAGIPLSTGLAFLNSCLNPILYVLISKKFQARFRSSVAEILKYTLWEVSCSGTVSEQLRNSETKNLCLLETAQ
In words: β-arrestin recruitment (PathHunter). The class given is cell-based. The note with it: GPR1; mean, SEM and n; read-out: pEC50, PathHunter (fold over basal) (converted). The method, then: PathHunter eXpress Assays (DiscoverX) were performed in 384-well format according to the manufacturer’s recommendations. GPR1 cells were incubated with peptides for 90 min and luminescence measured using an EnSpire 2300 Multimode plate reader (PerkinElmer).
Background: Recruitment of arrestin is a read-out of receptor activation apart from second messengers.

Assay [3] deals with T1, BB3. In words: Dynamic mass redistribution (DMR), concentration-response. The class given is cell-based.
For assay [4], the target named is T1, BB3. In words: IP1 accumulation (Gq/11), HTRF. The class given is cell-based.
The target of assay [5] is T2, GPR1. In words: β-arrestin recruitment (Tango), validation. The class given is cell-based. On the set-up: host or cells: HTLA cells (HEK293-derived). The note with it: pEC50, Tango (fold over basal), GPR1; mean, SEM and n.
Assay [6] deals with T3, BB3 (Homo sapiens, UniProt P32247).
T3 construct: host or cells: HTLA cells (HEK293-derived)
T3 sequence (P32247 1-399): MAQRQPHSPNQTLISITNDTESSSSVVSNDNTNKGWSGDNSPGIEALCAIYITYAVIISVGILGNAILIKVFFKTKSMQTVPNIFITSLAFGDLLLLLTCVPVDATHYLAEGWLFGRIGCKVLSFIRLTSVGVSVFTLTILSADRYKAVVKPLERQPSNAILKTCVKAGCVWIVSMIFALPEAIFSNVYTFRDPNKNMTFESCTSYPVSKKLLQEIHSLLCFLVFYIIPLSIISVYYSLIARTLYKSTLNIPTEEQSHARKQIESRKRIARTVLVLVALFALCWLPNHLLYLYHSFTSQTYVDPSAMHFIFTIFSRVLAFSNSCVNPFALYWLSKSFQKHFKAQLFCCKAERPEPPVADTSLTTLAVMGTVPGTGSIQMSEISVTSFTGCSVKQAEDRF
The assay can be described thus: β-arrestin recruitment (Tango), validation. The class given is cell-based. The procedure:
The peptide library was additionally screened against 120 GPCR targets in parallel, including all available orphan receptors and 27 known class A peptide receptors using the Tango assay platform ([Kroeze et al., 2015]). Briefly, HTLA cells (a HEK293 cell line stably expressing a tTA-dependent luciferase reporter and a β-arrestin2-TEV fusion gene) were plated 10,000 cells/well in poly-L-lysine–coated clear-bottom white 384-well plates in DMEM supplemented with 10% FBS, 100 U/ml penicillin and 100 μg/ml streptomycin, 2 μg/ml puromycin and 100 μg/ml hygromycin B. 24 hr later, cells were transfected with Tango GPCR constructs using the calcium phosphate method ([Jordan et al., 1996]). The next day, culture medium was changed to DMEM + 1% dFBS and 10 μM peptides were added for overnight stimulation. Bright-Glo solution (Promega) was incubated for 15–20 min at room temperature, and luminescence was counted using a Trilux luminescence counter (Wallac).
For subsequent peptide validation experiments using Tango assays, HTLA cells were transiently transfected in 10 cm dishes with the receptor of interest using polyethylenimine (PEI) ([Longo et al., 2013]). After 24 hr, 25,000 cells/well were plated in clear bottom, white-walled 384-well plates. Assays were performed as described above, with luminescence measured using an EnSpire 2300 Multimode plate reader (PerkinElmer). Luminescence counts were exported into Excel and were analyzed using GraphPad Prism 7.

In assay [7] the test system is human GPCRs. Details: method as in Guide to Pharmacology database. Particulars: max reported value, ref Guide to Pharmacology database, cited from earlier work. An excerpt:
Supplement mmc1.xlsx, sheet "HumanGPCRLigands" | column: pKi_value; pKd_value; pEC50_value; pIC50_value

Assay [8] deals with T4, GPR68 (Homo sapiens, UniProt Q15743). The assay can be described thus: Dynamic mass redistribution (DMR), concentration-response. The class given is cell-based. Details: hIL-2Ra signal peptide (N); expressed in transfected cells. The note with it: receptor GPR68; mean, SEM and n (3-4). The procedure:
(§1) 48 hr prior to parallel assaying, SNAP-tagged oGPCR cells were plated (10,000 cells/well) in fibronectin-coated 384-well Epic biosensor microplates (Corning) and poly-D-lysine coated white 384-well plates (for internalization assays). SNAP- GLP-1 receptor was plated alongside orphan receptor cells as an internal assay control for internalization assays. Receptor-expression was induced with 0.1 μg/ml doxycycline.
DMR assays provide a single integrated readout of ligand-dependent cellular response, utilizing an optical biosensor in specialized microplates to detect wavelength shifts of reflected light as it passes through the biosensor and the lower portion of the cell (∼150-200 nm). As a signal pathway agnostic approach, DMR assays are well-suited to the study of GPCRs ([Fang et al., 2008], [Schröder et al., 2011]). The mass redistribution response (Δ picometer (pm)) likely reflects a number of intracellular events, including cytoskeletal rearrangement, protein trafficking and receptor internalization. Orphan receptor-expressing cells were gently washed twice with assay buffer (HBSS with 1 mM CaCl2, 1 mM MgCl2, 20 mM HEPES, 0.01% pluronic F-68, pH 7.4) containing 0.1% DMSO and cells were equilibrated for 90 min at 22°C in the EPIC Benchtop (BT) System (Corning) to establish a stable DMR signal. After 3-5 min baseline recordings, peptides (10 μM) were added in duplicate wells using an electronic 384-channel Viaflo pipette (Integra Biosciences, Switzerland) and DMR responses were measured for 60 min at 22°C. 100 nM norepinephrine was included as an internal assay control to assess the cellular DMR response via endogenously-expressed adrenoceptors in the TREx 293 cells. Real-time data were processed using the BT to column converter MS-Excel macro (Corning) and analyzed in GraphPad Prism 7.0. DMR recordings in peptide screening experiments were buffer and solvent corrected and the area under the curve (AUC) was quantified. For subsequent validation experiments, peptides were diluted in assay buffer containing 0.1% DMSO and DMR assays were performed as above. […] Data represent mean ± standard error of the mean (SEM) from at least 3 biologically independent experiments.

Assay [9] deals with T4, GPR68. In words: Real-time receptor internalization (TR-FRET), concentration-response. The note with it: receptor GPR68; mean, SEM and n (3). On the set-up: hIL-2Ra signal peptide (N); expressed in transfected cells. The class given is cell-based. The method, then:
as §1
A TR-FRET real-time internalization assay was used to examine peptide-dependent changes in orphan receptor localization as described previously ([Foster and Bräuner-Osborne, 2018]). Surface-expressed SNAP-tagged receptors were labeled with a cell-impermeable luminescent terbium cryptate (100 nM SNAP Lumi4-Tb; Cisbio, France) for 1 hr at 37°C. Cells were washed to remove excess terbium and incubated with fluorescein-O-acetic acid (100 μM; Sigma Aldrich) for 5 min at 37°C. Peptides were added as for DMR assays, and internalization responses were recorded for 60 min at 37°C using an EnVision 2104 Multimode plate reader (PerkinElmer). 100 nM GLP-1 was used as a positive control for SNAP-GLP1R internalization. Real-time internalization responses were calculated based on TR-FRET (excitation 340 nm; emission 520 nm and 615 nm), and were expressed as the ratio between donor (terbium) and acceptor (fluorescein) emission. For peptide screening analysis (both DMR and internalization assays), we calculated the area under the curve from the real-time traces. As the magnitude of the responses was variable between orphan receptor targets, particularly for the SNAP-tag based internalization assay where the signal is dependent on receptor surface expression, the AUC values were normalized to their respective plate averages and expressed as fold change. Validation experiments for receptor internalization were performed as above. Internalization data was processed in MS-Excel and area under the curve was used to generate concentration-response curves using GraphPad Prism 7.0. Data represent mean ± standard error of the mean (SEM) from at least 3 biologically independent experiments.

The mark [10] stands for this setting: receptor grpr_human (GRPR, P30550).
[11] abbreviates: HTLA cells transiently transfected, overnight stimulation, luciferase, mean ± SEM of 3-4 independent experiments in triplicate, read-out: pEC50, β-arrestin recruitment (Tango), BB3 (converted).

T4 sequence (Q15743 2-365 limits assumed): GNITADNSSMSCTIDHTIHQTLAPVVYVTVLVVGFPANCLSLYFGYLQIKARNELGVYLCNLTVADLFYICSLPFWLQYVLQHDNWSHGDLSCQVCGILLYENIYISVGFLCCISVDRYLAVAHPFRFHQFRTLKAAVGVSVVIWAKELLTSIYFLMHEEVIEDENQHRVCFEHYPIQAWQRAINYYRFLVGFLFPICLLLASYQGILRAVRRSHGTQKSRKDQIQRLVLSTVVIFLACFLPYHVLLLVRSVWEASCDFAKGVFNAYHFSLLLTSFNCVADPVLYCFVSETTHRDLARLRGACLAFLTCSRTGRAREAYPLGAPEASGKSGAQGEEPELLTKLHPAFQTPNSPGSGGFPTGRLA

As to `CSCC[C@H](NC(=O)[C@H](CC(C)C)NC(=O)[C@H](Cc1c[nH]cn1)NC(=O)CNC(=O)[C@@H](NC(=O)[C@H](C)NC(=O)[C@H](Cc1c[nH]c2ccccc12)NC(=O)[C@H](Cc1c[nH]cn1)NC(=O)[C@H](CC(N)=O)NC(=O)CNC(=O)[C@H](CCCN=C(N)N)NC(=O)[C@@H]1CCCN1C(=O)[C@H](Cc1ccc(O)cc1)NC(=O)[C@H](CCSC)NC(=O)[C@H](CCCCN)NC(=O)[C@@H](NC(=O)[C@H](CC(C)C)NC(=O)[C@@H](NC(=O)[C@@H](NC(=O)CNC(=O)CNC(=O)CNC(=O)[C@H](C)NC(=O)[C@@H]1CCCN1C(=O)[C@H](CC(C)C)NC(=O)[C@@H]1CCCN1C(=O)[C@@H](N)C(C)C)[C@@H](C)O)C(C)C)[C@@H](C)O)C(C)C)C(N)=O` [Gastrin-releasing peptide (GRP)], the EC50 was 14800 nM in assay [1] (pEC50, Internalization (AUC)); 398 nM in assay [2]; 2040 nM in [3] (pEC50, DMR (peak), BB3, mean, SEM and n); 447 nM in assay [4] (pEC50, IP1 (nM), BB3, mean, SEM and n); 5500 nM in assay [5]; 43700 nM in assay [6] (BB3, mean, SEM and n, read-out: pEC50, Tango (fold over basal) (converted)).
In the case of `CSCC[C@H](NC(=O)[C@H](Cc1ccccc1)NC(=O)[C@H](Cc1c[nH]cn1)NC(=O)CNC(=O)[C@@H](NC(=O)[C@H](C)NC(=O)[C@H](Cc1c[nH]c2ccccc12)NC(=O)[C@H](CC(C)C)NC(=O)[C@H](CC(N)=O)NC(=O)CN)[C@@H](C)O)C(N)=O` [Peptide 59, Neuromedin B, reference compound], the “Emax, Internalization (AUC)” value in assay [1] (BB3, mean, SEM and n) is reported as 26.4. The EC50 in [1] (BB3, mean, SEM and n, read-out: pEC50, Internalization (AUC) (converted)) is 1950 nM; in assay [3] it was 37.2 nM; in assay [4] (pEC50, IP1 accumulation (Gq/11), BB3, HTRF IP-One, 30 min, 37°C, mean ± SEM of 3-4 independent experiments in triplicate, peptide 158 n = 2), 407 nM; in [6] (setting [11]), 2000 nM. Besides, the “Emax, DMR (peak)” value in assay [3] (BB3, mean, SEM and n) came out at 183.2. Also, the “Emax, IP1” value in assay [4] (BB3, mean, SEM and n) was determined as 81.0 nM. Moreover, in [7] (setting [10]), the pIC50_value is on record as 7.5. Moreover, the pKi_value in [7] (setting [10]) is 8.1; in [7] (receptor nmbr_human (NMBR, P28336)), 10.3. Also, the “Emax, Tango (fold over basal)” value in [6] (BB3, mean, SEM and n) is listed as 5.0 fold over basal. Also, the “pEC50, Tango (fold over basal)” value in assay [6] (BB3, mean, SEM and n) is 5.67.
For `CSCC[C@H](NC(=O)[C@H](CC(C)C)NC(=O)[C@H](Cc1c[nH]cn1)NC(=O)CNC(=O)[C@@H](NC(=O)[C@H](C)NC(=O)[C@H](Cc1c[nH]c2ccccc12)NC(=O)[C@H](Cc1c[nH]cn1)NC(=O)[C@H](CC(N)=O)NC(=O)CNC(=O)[C@H](CCCNC(=N)N)NC(=O)[C@@H]1CCCN1C(=O)[C@H](Cc1ccc(O)cc1)NC(=O)[C@H](CCSC)NC(=O)[C@H](CCCCN)NC(=O)[C@@H](NC(=O)[C@H](CC(C)C)NC(=O)[C@@H](NC(=O)[C@@H](NC(=O)CNC(=O)CNC(=O)CNC(=O)[C@H](C)NC(=O)[C@@H]1CCCN1C(=O)[C@H](CC(C)C)NC(=O)[C@@H]1CCCN1C(=O)[C@@H](N)C(C)C)[C@@H](C)O)C(C)C)[C@@H](C)O)C(C)C)C(N)=O` [Peptide 167, gastrin-releasing peptide, reference compound], in [1] (pEC50, internalization, BB3), the EC50 was greater than 10000 nM. For the same compound, in assay [7] (setting [10]), the pIC50_value was 10 and the pKi_value is 8.2. The EC50 in assay [6] (setting [11]) is greater than 10000 nM.
Regarding RFGIPMDRIGRNRLSNSRG [128 original], in [8], the “DMR assays Emax (peak or AUC)” value was determined as 893047. Besides, the “Internalization assays Emax (AUC)” value in assay [9] was 8.3.
